In US20110117193A1, “ANTIRETROVIRAL DRUG FORMULATIONS FOR TREATMENT OF CHILDREN EXPOSED TO HIV/AIDS” (priority 2008, published 2011):

Assay: pH of suspensions
Type: physicochemical
Settings: 0.2% w/v solution in water
Protocol: The effect of the suspending agent and sweetener on the pH and viscosity of the suspensions was examined. AVICEL® RC 591, alone and in combination with other potential formulation components, was suspended in water. The pH of the suspensions was measured using a pH meter. The viscosity of the suspensions was measured on a Brookfield […] RV series viscometer: spindle size 4 at 20 rpm was used. The suspensions were visually inspected for signs of precipitation, sedimentation, and consistency.

pH of solution: 6.4
Compound: OC[C@H]1O[C@H](O[C@]2(CCl)O[C@H](CCl)[C@@H](O)[C@@H]2O)[C@H](O)[C@@H](O)[C@H]1Cl [sucralose]
